Source: BigSolDB 2.1

CC1=C(/C=C/C(C)=C/C=C/C(C)=C/C=C/C=C(C)/C=C/C=C(C)/C=C/C2=C(C)C(=O)CCC2(C)C)C(C)(C)CCC1=O
solubility (mole fraction)
Details | 293.15 K | 298.15 K | 303.15 K | 308.15 K | 313.15 K | 318.15 K | 323.15 K | 333.15 K | 343.15 K
in acetone | 1.95e-05 | 2.45e-05 | 3.1e-05 | 3.72e-05 | 4.22e-05 | 4.94e-05 | – | – | –
in cyclohexane | 1.27e-05 | – | 1.33e-05 | – | 1.38e-05 | – | 1.48e-05 | 1.71e-05 | 2.06e-05
in ethanol | 4.5e-06 | – | 5.6e-06 | – | 6.35e-06 | – | 7.48e-06 | 8.72e-06 | 9.9e-06
in ethyl acetate | 2.71e-05 | – | 3.67e-05 | – | 5.43e-05 | – | 8.58e-05 | 0.000144 | 0.000256
in methanol | 2.61e-06 | – | 2.93e-06 | – | 3.27e-06 | – | 3.77e-06 | 4.53e-06 | –
in toluene | 0.000118 | – | 0.000146 | – | 0.000171 | – | 0.00019 | 0.000202 | 0.000208
